For one assay, the target named is T1, Human σ1 receptor (Homo sapiens, UniProt Q99720).
T1 construct: expressed in transfected cells; host or cells: HEK-293
As to the kind of experiment: Human σ1 receptor radioligand assay ([3H](+)-pentazocine binding, transfected HEK-293 membranes). The note with it: binding to σ1 receptor expressed as Ki; + also covers inhibition between 1% and 50%; read-out: σ-1 binding. As to the method: Human σ1 Receptor Radioligand Assay
Transfected HEK-293 membranes (7 μg) were incubated with 5 nM of [^3H](+)-pentazocine in assay buffer containing Tris-HCl 50 mM at pH 8. NBS (non-specific binding) was measured by adding 10 μM haloperidol. The binding of the test compound was measured at either one concentration (% inhibition at 1 or 10 μM) or five different concentrations to determine affinity values (Ki). Plates were incubated at 37° C. for 120 minutes. After the incubation period, the reaction mix was then transferred to MultiScreen HTS, FC plates (Millipore), filtered and plates were washed 3 times with ice-cold 10 mM Tris-HCL (pH7.4). Filters were dried and counted at approximately 40% efficiency in a MicroBeta scintillation counter (Perkin-Elmer) using EcoScint liquid scintillation cocktail.

Assay [1] has as its target Human α2δ-1 subunit of Cav2.2 calcium channel (Homo sapiens, UniProt P54289). As to the kind of experiment: Human α2δ-1 subunit of Cav2.2 calcium channel assay ([3H]-gabapentin binding). As to conditions: binding to the α2δ-1 subunit of voltage-gated calcium channels expressed as Ki; + also covers inhibition between 1% and 50%. How it is done: Biological Activity Pharmacological Study Human α2δ-1 Subunit of Cav2.2 Calcium Channel Assay
Human α2δ-1 enriched membranes (2.5 μg) were incubated with 15 nM of radiolabeled [^3H]-Gabapentin in assay buffer containing Hepes-KOH 10 mM, pH 7.4. NSB (non specific binding) was measured by adding 10 μM pregabalin. The binding of the test compound was measured at either one concentration (% inhibition at 1 or 10 μM) or five different concentrations to determine affinity values (Ki). After 60 min incubation at 27° C., binding reaction was terminated by filtering through Multiscreen GF/C (Millipore) presoaked in 0.5% polyethyleneimine in Vacuum Manifold Station, followed by 3 washes with ice-cold filtration buffer containing 50 mM Tris-HCl, pH 7.4. Filter plates were dried at 60° C. for 1 h and 30 μL of scintillation cocktail were added to each well before radioactivity reading. Readings were performed in a Trilux 1450 Microbeta radioactive counter (Perkin Elmer).

Sequence of Human α2δ-1 subunit of Cav2.2 calcium channel (P54289 25-1103): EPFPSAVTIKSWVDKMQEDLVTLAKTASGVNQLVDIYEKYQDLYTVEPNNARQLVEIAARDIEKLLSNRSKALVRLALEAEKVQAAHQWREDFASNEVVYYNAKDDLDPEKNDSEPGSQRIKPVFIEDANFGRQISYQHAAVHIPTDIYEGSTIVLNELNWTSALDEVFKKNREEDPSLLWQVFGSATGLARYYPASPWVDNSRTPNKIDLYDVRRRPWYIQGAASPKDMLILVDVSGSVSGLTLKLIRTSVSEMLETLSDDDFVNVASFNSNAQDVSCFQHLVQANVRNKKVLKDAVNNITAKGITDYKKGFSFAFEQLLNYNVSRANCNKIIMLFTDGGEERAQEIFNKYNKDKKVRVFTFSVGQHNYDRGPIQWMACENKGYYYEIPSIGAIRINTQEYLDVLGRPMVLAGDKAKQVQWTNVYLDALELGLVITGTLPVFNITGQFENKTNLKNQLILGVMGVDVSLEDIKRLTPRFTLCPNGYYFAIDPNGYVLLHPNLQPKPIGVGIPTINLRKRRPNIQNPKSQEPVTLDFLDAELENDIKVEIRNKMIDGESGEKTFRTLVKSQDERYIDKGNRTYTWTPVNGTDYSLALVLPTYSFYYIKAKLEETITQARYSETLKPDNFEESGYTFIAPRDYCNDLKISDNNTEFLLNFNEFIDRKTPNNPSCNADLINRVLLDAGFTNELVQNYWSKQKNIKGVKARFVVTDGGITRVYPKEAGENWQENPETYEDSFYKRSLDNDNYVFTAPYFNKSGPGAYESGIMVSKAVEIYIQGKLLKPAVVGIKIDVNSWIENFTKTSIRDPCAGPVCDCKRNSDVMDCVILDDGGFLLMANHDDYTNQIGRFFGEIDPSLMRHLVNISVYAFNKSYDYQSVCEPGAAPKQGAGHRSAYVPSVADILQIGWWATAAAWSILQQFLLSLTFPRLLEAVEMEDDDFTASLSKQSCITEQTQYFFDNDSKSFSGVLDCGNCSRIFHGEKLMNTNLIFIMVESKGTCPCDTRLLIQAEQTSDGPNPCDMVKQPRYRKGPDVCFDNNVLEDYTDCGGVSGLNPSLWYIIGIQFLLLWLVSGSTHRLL
T1 sequence (Q99720 whole entry): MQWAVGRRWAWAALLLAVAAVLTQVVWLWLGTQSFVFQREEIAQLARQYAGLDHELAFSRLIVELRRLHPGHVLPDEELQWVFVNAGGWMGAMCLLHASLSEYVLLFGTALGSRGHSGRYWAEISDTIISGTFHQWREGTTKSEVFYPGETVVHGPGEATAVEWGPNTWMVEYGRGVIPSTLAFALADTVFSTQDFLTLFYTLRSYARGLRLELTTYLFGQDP

With `Cc1nn2c(C3CCCN(Cc4ccc(Cl)cc4)C3)ccnc2c1CNCC1CCOC1` (racemic) [Example 201, (+/−)-1-(7-((R/S)-1-(4-Chlorobenzyl)piperidin-3-yl)-2-methylpyrazolo[1,5-a]pyrimidin-3-yl)-N—(((S/R)-tetrahydrofuran-3-yl)methyl)methanamine], the Ki on Human σ1 receptor is less than 500 nM; in assay [1], greater than 5000 nM. Consider `Cc1nn2c([C@@H]3CCCN(Cc4ccc(Cl)cc4)C3)ccnc2c1CNC[C@@H]1CCOC(C)(C)C1` (racemic) [Example 221, (+/−)-1-(7-((R/S)-1-(4-Chlorobenzyl)piperidin-3-yl)-2-methylpyrazolo[1,5-a]pyrimidin-3-yl)-N—(((R/S)-2,2-dimethyltetrahydro-2H-pyran-4-yl)methyl)methanamine], for which the Ki (at Human σ1 receptor; in assay [1]) was less than 500 nM in each case. With `Cc1nn2c([C@@H]3CCCN(Cc4ccc(Cl)cc4)C3)ccnc2c1CN[C@H](C)C1CCOCC1` (racemic) [Example 224, (+/−)-(R/S)—N-((7-((R/S)-1-(4-Chlorobenzyl)piperidin-3-yl)-2-methylpyrazolo[1,5-a]pyrimidin-3-yl)methyl)-1-(tetrahydro-2H-pyran-4-yl)ethan-1-amine], the Ki was less than 500 nM at Human σ1 receptor and 500 to 5000 nM in assay [1]. For `Brc1cc2nccc(C3CCCN(Cc4ccccc4)C3)n2n1` (stereo not shown) [Example 1, 7-(1-Benzylpiperidin-3-yl)-2-bromopyrazolo[1,5-a]pyrimidine] the same measures were 500 to 1000 nM and 500 to 5000 nM. On the same counts, the results for `c1ccc(CN2CCCC(c3ccnc4ccnn34)C2)cc1` (stereo not shown) [Example 2, 7-(1-Benzylpiperidin-3-yl)pyrazolo[1,5-a]pyrimidine] are greater than 1000 nM and 500 to 5000 nM. For `Cc1cc2nccc(C3CCCN(Cc4ccccc4)C3)n2n1` (stereo not shown) [Example 3, 7-(1-Benzylpiperidin-3-yl)-2-methylpyrazolo[1,5-a]pyrimidine] the same measures were 500 to 1000 nM and 500 to 5000 nM.

In the case of `CCc1cc2nccc(C3CCCN(Cc4ccccc4)C3)n2n1` (stereo not shown) [Example 4, 7-(1-Benzylpiperidin-3-yl)-2-ethylpyrazolo[1,5-a]pyrimidine], the Ki at Human σ1 receptor is less than 500 nM; in assay [1] it was 500 to 5000 nM. In the case of `Brc1cnn2c(C3CCCN(Cc4ccccc4)C3)ccnc12` (stereo not shown) [Example 5, 7-(1-Benzylpiperidin-3-yl)-3-bromopyrazolo[1,5-a]pyrimidine], the Ki on Human σ1 receptor was less than 500 nM; in assay [1] it was 500 to 5000 nM.

Turning to `Cc1cnc2c(Br)c(C)nn2c1C1CCCN(Cc2ccccc2)C1` (stereo not shown) [Example 6, 7-(1-Benzylpiperidin-3-yl)-3-bromo-2,6-dimethylpyrazolo[1,5-a]pyrimidine], the Ki on Human σ1 receptor was greater than 1000 nM; in assay [1], 500 to 5000 nM. For the molecule `Cc1cnc2c(Br)cnn2c1C1CCCN(Cc2ccccc2)C1` (stereo not shown) [Example 7, 7-(1-Benzylpiperidin-3-yl)-3-bromo-6-methylpyrazolo[1,5-a]pyrimidine], the figures for the Ki (on Human σ1 receptor; in assay [1]) were greater than 1000 nM and greater than 5000 nM, respectively. For `CC(=O)Nc1c(C)nn2c(C3CCCN(Cc4ccccc4)C3)ccnc12` (stereo not shown) [Example 8, N-(7-(1-Benzylpiperidin-3-yl)-2-methylpyrazolo[1,5-a]pyrimidin-3-yl)acetamide] the same measures were greater than 1000 nM and greater than 5000 nM.

For `CC(=O)Nc1nn2c(C3CCCN(Cc4ccccc4)C3)ccnc2c1C` (stereo not shown) [Example 9, N-(7-(1-Benzylpiperidin-3-yl)-3-methylpyrazolo[1,5-a]pyrimidin-2-yl)acetamide], the Ki was greater than 1000 nM on Human σ1 receptor and greater than 5000 nM in assay [1]. On the same counts, the results for `Cc1nn2c(C3CCCN(Cc4ccccc4)C3)ccnc2c1Br` (stereo not shown) [Example 10, 7-(1-Benzylpiperidin-3-yl)-3-bromo-2-methylpyrazolo[1,5-a]pyrimidine] are less than 500 nM and 500 to 5000 nM. As for `CCc1nn2c(C3CCCN(Cc4ccccc4)C3)ccnc2c1Br` (stereo not shown) [Example 11, 7-(1-Benzylpiperidin-3-yl)-3-bromo-2-ethylpyrazolo[1,5-a]pyrimidine], the figures for the Ki (at Human σ1 receptor; in assay [1]) were less than 500 nM and 500 to 5000 nM, respectively. On the same counts, the results for `c1ccc(CN2CCCC(c3ccnc4cc(-c5ccccc5)nn34)C2)cc1` (stereo not shown) [Example 12, 7-(1-Benzylpiperidin-3-yl)-2-phenylpyrazolo[1,5-a]pyrimidine] are 500 to 1000 nM and greater than 5000 nM.

`CCOc1ccc(-c2cc3nccc(C4CCCN(Cc5ccccc5)C4)n3n2)cc1` (stereo not shown) [Example 13, 7-(1-Benzylpiperidin-3-yl)-2-(4-ethoxyphenyl)pyrazolo[1,5-a]pyrimidine]: the Ki was greater than 1000 nM on Human σ1 receptor and greater than 5000 nM in assay [1]. Turning to `Fc1ccccc1-c1cc2nccc(C3CCCN(Cc4ccccc4)C3)n2n1` (stereo not shown) [Example 14, 7-(1-Benzylpiperidin-3-yl)-2-(2-fluorophenyl)pyrazolo[1,5-a]pyrimidine], the Ki lay in the range of 500 to 1000 nM on Human σ1 receptor and 500 to 5000 nM in assay [1]. For `Clc1ccc(-c2cc3nccc(C4CCCN(Cc5ccccc5)C4)n3n2)cc1` (stereo not shown) [Example 15, 7-(1-Benzylpiperidin-3-yl)-2-(4-chlorophenyl)pyrazolo[1,5-a]pyrimidine] the same measures were greater than 1000 nM and greater than 5000 nM. `c1ccc(CN2CCCC(c3ccnc4cc(-c5ccncc5)nn34)C2)cc1` (stereo not shown) [Example 16, 7-(1-Benzylpiperidin-3-yl)-2-(pyridin-4-yl)pyrazolo[1,5-a]pyrimidine]: the values for the Ki (at Human σ1 receptor; in assay [1]) were greater than 1000 nM and 500 to 5000 nM, respectively. For the molecule `c1ccc(CN2CCCC(c3ccnc4cc(-c5cccnc5)nn34)C2)cc1` (stereo not shown) [Example 17, 7-(1-Benzylpiperidin-3-yl)-2-(pyridin-3-yl)pyrazolo[1,5-a]pyrimidine], the Ki is 500 to 1000 nM at Human σ1 receptor and 500 to 5000 nM in assay [1]. On the same counts, the results for `Clc1cncc(Cl)c1-c1cc2nccc(C3CCCN(Cc4ccccc4)C3)n2n1` (stereo not shown) [Example 18, 7-(1-Benzylpiperidin-3-yl)-2-(3,5-dichloropyridin-4-yl)pyrazolo[1,5-a]pyrimidine] are 500 to 1000 nM and 500 to 5000 nM. On the same counts, the results for `c1ccc(CN2CCCC(c3ccnc4cc(-c5cccs5)nn34)C2)cc1` (stereo not shown) [Example 19, 7-(1-Benzylpiperidin-3-yl)-2-(thiophen-2-yl)pyrazolo[1,5-a]pyrimidine] are greater than 1000 nM and 500 to 5000 nM. On the same counts, the results for `c1ccc(CN2CCCC(c3ccnc4cc(-c5cnsc5)nn34)C2)cc1` (stereo not shown) [Example 20, 4-(7-(1-Benzylpiperidin-3-yl)pyrazolo[1,5-a]pyrimidin-2-yl)isothiazole] are greater than 1000 nM and 500 to 5000 nM. In the case of `Cn1cncc1-c1cc2nccc(C3CCCN(Cc4ccccc4)C3)n2n1` (stereo not shown) [Example 21, 7-(1-Benzylpiperidin-3-yl)-2-(1-methyl-1H-imidazol-5-yl)pyrazolo[1,5-a]pyrimidine], the values for the Ki (at Human σ1 receptor; in assay [1]) were greater than 1000 nM and 500 to 5000 nM, respectively. As to `CN(C)c1ccc(-c2cc3nccc(C4CCCN(Cc5ccccc5)C4)n3n2)cc1` (stereo not shown) [Example 22, 4-(7-(1-Benzylpiperidin-3-yl)pyrazolo[1,5-a]pyrimidin-2-yl)-N,N-dimethylaniline], the Ki on Human σ1 receptor is greater than 1000 nM; in assay [1] it was 500 to 5000 nM. As for `c1ccc(CN2CCCC(c3ccnc4cc(-c5cncnc5)nn34)C2)cc1` (stereo not shown) [Example 23, 7-(1-Benzylpiperidin-3-yl)-2-(pyrimidin-5-yl)pyrazolo[1,5-a]pyrimidine], the Ki at Human σ1 receptor is greater than 1000 nM; in assay [1], 500 to 5000 nM. For the molecule `Nc1ccc(-c2cc3nccc(C4CCCN(Cc5ccccc5)C4)n3n2)cn1` (stereo not shown) [Example 24, 5-(7-(1-Benzylpiperidin-3-yl)pyrazolo[1,5-a]pyrimidin-2-yl)pyridin-2-amine], the Ki is greater than 1000 nM at Human σ1 receptor and 500 to 5000 nM in assay [1]. For `Cn1cc(-c2cc3nccc(C4CCCN(Cc5ccccc5)C4)n3n2)cn1` (stereo not shown) [Example 25, 7-(1-Benzylpiperidin-3-yl)-2-(1-methyl-1H-pyrazol-4-yl)pyrazolo[1,5-a]pyrimidine], the Ki at Human σ1 receptor is greater than 1000 nM; in assay [1] it was greater than 5000 nM. On the same counts, the results for `c1ccc(CN2CCCC(c3ccnc4cc(-c5ccccn5)nn34)C2)cc1` (stereo not shown) [Example 26, 7-(1-Benzylpiperidin-3-yl)-2-(pyridin-2-yl)pyrazolo[1,5-a]pyrimidine] are greater than 1000 nM and less than 500 nM. Regarding `COc1ncccc1-c1cc2nccc(C3CCCN(Cc4ccccc4)C3)n2n1` (stereo not shown) [Example 27, 7-(1-Benzylpiperidin-3-yl)-2-(2-methoxypyridin-3-yl)pyrazolo[1,5-a]pyrimidine], the Ki at Human σ1 receptor was in the range of 500 to 1000 nM; in assay [1], 500 to 5000 nM. In the case of `CC(=O)N1CCC(CNCc2c(Cl)nn3c([C@@H]4CCCN(Cc5ccccc5)C4)ccnc23)CC1` [Example 217, (R)-1-(4-((((7-(1-benzylpiperidin-3-yl)-2-chloropyrazolo[1,5-a]pyrimidin-3-yl)methyl)amino)methyl)piperidin-1-yl)ethan-1-one], the Ki in assay [1] was greater than 5000 nM.

(Values after patent US12617797B2, “Substituted pyrazolo [1,5-a]pyrimidines having multimodal activity against pain” (ESTEVE PHARMACEUTICALS, S.A., priority 2020, dated 2026).)
